As a reminder, the pIC50 is the negative decadic logarithm of the IC50, by convention in mol/L. A higher pIC50 goes with a low IC50.

These results are taken from BindingDB's records for patent US11034694 (Nimbus Saturn, 2021).

pIC50: −log10 of the molar value.

The target in the experiment is Mitogen-activated protein kinase kinase kinase kinase 1 (Homo sapiens, UniProt Q92918). Description: Biochemical Enzyme Assay. The method, then: HPK1 biochemical enzyme assay: HPK1 enzyme inhibition was measured using a microfluidic mobility shift assay. […] Test compounds were titrated in ten point curves (top final assay concentration 3 μM), and preincubated with enzyme/substrate mix for 30 min prior to initiation of the reaction by addition of ATP (1 mM final concentration) and substrate (1 μM final concentration; Carna Biosciences) diluted in assay buffer supplemented by MgCl2 (final assay concentration of 5 mM). Following 60 min incubation at RT, the reaction was terminated by addition of 60 μl/well termination buffer (Carna Biosciences) and signal determination using a Caliper EZ Reader (Perkin Elmer, UK).
Sequence of Mitogen-activated protein kinase kinase kinase kinase 1 (Q92918 whole entry): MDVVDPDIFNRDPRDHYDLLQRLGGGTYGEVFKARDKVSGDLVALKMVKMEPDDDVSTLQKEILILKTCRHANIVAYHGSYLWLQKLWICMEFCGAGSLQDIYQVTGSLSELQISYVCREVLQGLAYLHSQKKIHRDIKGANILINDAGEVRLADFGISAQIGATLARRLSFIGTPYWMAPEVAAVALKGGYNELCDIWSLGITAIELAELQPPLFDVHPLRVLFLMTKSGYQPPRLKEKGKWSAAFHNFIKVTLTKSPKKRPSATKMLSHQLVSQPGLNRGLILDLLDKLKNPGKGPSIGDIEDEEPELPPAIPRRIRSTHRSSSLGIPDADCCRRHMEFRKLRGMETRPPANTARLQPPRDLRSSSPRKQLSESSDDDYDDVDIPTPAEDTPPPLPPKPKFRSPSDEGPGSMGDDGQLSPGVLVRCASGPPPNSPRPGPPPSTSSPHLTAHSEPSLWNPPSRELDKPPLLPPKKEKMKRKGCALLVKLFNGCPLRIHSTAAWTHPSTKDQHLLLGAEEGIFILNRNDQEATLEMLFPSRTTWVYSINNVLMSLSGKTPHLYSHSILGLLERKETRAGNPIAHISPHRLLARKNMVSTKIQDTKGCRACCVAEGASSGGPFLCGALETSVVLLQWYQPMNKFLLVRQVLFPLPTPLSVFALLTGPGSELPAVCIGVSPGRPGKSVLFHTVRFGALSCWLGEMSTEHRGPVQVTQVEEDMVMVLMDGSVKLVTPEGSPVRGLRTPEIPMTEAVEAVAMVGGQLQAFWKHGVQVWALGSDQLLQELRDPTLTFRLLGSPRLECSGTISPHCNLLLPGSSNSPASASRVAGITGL

Consider `Cc1ccn2c(-c3ccc(Nc4ccc(N5CCO[C@@H](CP)C5)cn4)c4c3CNC4=O)cnc2c1F` [US11034694, Compound I-460], for which the pIC50 was over 7.00.

Take `Cn1ccc2c(-c3ncc(Nc4ccc(N5C[C@H]6COC[C@@H]5C6)cn4)c4c3CNC4=O)ccnc21` [US11034694, Compound I-309]: the negative logarithm of the IC50 (pIC50) is over 7.00.

Compound `CNC1CN(c2cccc(Cc3cnc(-c4ccnc5c4ccn5C)c4c3C(=O)NC4)n2)C1` [US11034694, Compound I-449] showed a negative logarithm of the IC50 (pIC50) of over 7.00.
